Test results as given in patent publication US12240870B2, “Sequencing method for CAR T cell therapy” (Purdue Research Foundation, priority 2018, dated 2025).
“Also recorded” adds a separate entry of the source.

How the values were obtained:
[1] = biological target: T1, FRα (KB) (Homo sapiens, UniProt P15328); experiment: 3H-EC17 cell-based radioligand binding assay on KB cells; settings: 2 h at 37° C.
T1 construct: endogenous in cells; host or cells: KB cells
Procedure: (§1) FIG. 10, Panel A: Kd values of ^3H-EC17 uptake by FR+ target cells after a 2 hour incubation at 37° C. (calculated from the numbers of molecules bound per cell). Panel B: Kd value of ^3H^−EC17 uptake by E2-CAR-T cells (˜24% EGFRt+, ˜95:5 CD8/CD4 ratio) after a 2 hour incubation at room temperate (calculated from total cell-associated radioactivity, DPM).
(§2) The bispecific affinities of EC17 CAM (a CAM is equivalent to a “bridge” or the “compound” in this application) were assessed using ^3H-EC17 in cell-based radioligand binding assays. […] The whole cell lysates were quantitated for the level of radioactivity and cellular protein content by standard Pierce BCA protein assay. The number of ^3H-EC17 molecules bound per cell was calculated to determine the dissociation constants (Kd) for FRα (KB) and FRβ (CHO-β) respectively (FIG. 10).
(§3) The EC17 has already been tested in the clinic for immunotherapy and optical imaging purposes. To directly quantify its bispecific binding affinities, ^3H-EC17 was synthesized and radioligand binding assays were carried out on KB and CHO-β cell lines representing FRα+ and FRβ+ target cells, respectively, and on unsorted EGFRt CAR-T cells representing the effector cells.

[2] = biological target: T2, FRβ (CHO-β) (Homo sapiens, UniProt P14207); experiment: 3H-EC17 cell-based radioligand binding assay on CHO-β cells; settings: 2 h at 37° C.
T2 construct: expressed in transfected cells; host or cells: CHO (Chinese hamster ovary) cells
Procedure: as §1, §2, §3

[3] = system: THP1-FRβ xenografts; experiment: THP1-FRβ AML intravenous xenograft, E2 CAR-T cells plus EC17; type: in vivo, NSG mice
[4] = system: HOS-FRα xenografts; experiment: HOS-FRα osteosarcoma subcutaneous xenograft, E2 CAR-T cells plus EC17; type: in vivo, NSG mice
Text: Panel A: Schematic diagram to show dose scheduling of CAR-T cells (˜6 million, day 0) plus EC17 in NSG mice with 3-day-old subcutaneous HOS-FRα xenografts (n=5). Starting 3 days after CAR-T cell injection (6 days after tumor implant), 3 cycles of EC17 M/Th/M […], i.e. on days 3/6/10, 17/20/24, and 31/34/38. Panel B: Measurements of tumor volumes and change in body weights. Due to tumor progression, five mice received CAR-T cells only (no EC17) were euthanized on days 23-31, and five EC17 treated mice were euthanized on days 33 (2 mice) and 47 (3 mice), respectively. Panel C: Flow cytometric analysis of CAR-T cells (human CD3ε+EGFRT+) PER 100 μL OF WHOLE BLOOD PLOTTED ON A LOGARITHMIC SCALE (LEFT) AND TUMOR-infiltrating CAR-T cells at the time of euthanasia (right).
HOS-FRα (i.e. HOS-143b-LV-FRα) is a subclone of HOS-143B (ATCC CRL-8303) stably transfected with human FRα. HOS-143B was originally derived from a […] with osteosarcoma. The tumor cells were grown in folate-deficient RPMI 1640 with 5% FBS at 37° C. in a 5% CO2 humidified atmosphere. For the in-vivo study, tumor cells were inoculated subcutaneously at 1×10^6 cells per animal.
EGFRt-sorted anti-FITC E2 scFv-CAR T cells were frozen in a T-cell freezing medium. Upon arrival, vials of frozen CAR-T cells were immediately stored at −80° C. The CAR-T cells were quickly thawed at 37° C., washed twice with PBS, and used for animal injection at 6 million viable EGFRt+ E2 CAR-T cells (CD4/CD8 at ˜1:1) per animal. A small aliquot was taken on the day infusion for flow cytometric analysis of E2-CAR T-cell phenotypes.
EC17 dosing solutions were prepared when dosing began by weighing appropriate amounts of each compound, reconstituting in PBS, pH 7.4, sterile filtering the drug solution through a 0.22 μm PVDF syringe filter, and freezing aliquots for each day of dosing at −20° C.
All EC17 doses were given towards the end of day (3-4 PM) to allow potential CRS (cytokine release syndrome) to develop overnight. On the following morning, animals were scored according to a CRS grading system (see below).
Tumor growth, body weight, and overall assessment: Tumor sizes were monitored 2-3 times/week and body weight measured 2-3 times/week. On the days immediately after any EC17 dose, body weight measurement was taken daily and attention was given to gross animal morphology and behavior.
Euthanasia: Euthanasia was performed when mice had lost ≥20% of their weight, when tumors reached ≥1500 mm^3. Euthanasia was also performed if mice lost a lot of weight in a short duration (e.g., due to severe head-tilt), or when they approached moribund conditions per CRS grading system. • EC17 intra-host dose escalation treatment (3 cycles). See FIG. 16. • Antitumor activity (N=5)
All animal care and use were performed according to NIH guidelines and in compliance with protocols approved by the Purdue University Animal Use and Care Committee. Female 4 to 5-week-old NOD/SCID gamma (NSG™) mice (stock number: 005557) were purchased from The Jackson Laboratory (Bar Harbor, ME). Unless specifically indicated, all animals were maintained on a FA-deficient diet (TestDiet, St. Louis, MO) upon arrival and throughout the study. To establish subcutaneous xenografts, MDA-MB-231 and HOS-FRα were implanted in the right flank region at 2.5×10^6 and 1×10^6 cells per animal, respectively. […] Subcutaneous tumors were measured 2-3 times per week with a caliper and calculated using the ellipsoidal formula (length×width^2)/2. […]

T1 sequence (P15328 25-234): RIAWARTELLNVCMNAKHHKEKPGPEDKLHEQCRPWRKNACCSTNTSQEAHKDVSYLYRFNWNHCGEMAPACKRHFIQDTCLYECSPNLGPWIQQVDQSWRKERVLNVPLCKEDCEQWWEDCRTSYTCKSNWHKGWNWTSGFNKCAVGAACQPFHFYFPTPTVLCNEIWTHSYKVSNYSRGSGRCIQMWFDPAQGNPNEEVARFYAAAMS
T2 sequence (P14207 17-230): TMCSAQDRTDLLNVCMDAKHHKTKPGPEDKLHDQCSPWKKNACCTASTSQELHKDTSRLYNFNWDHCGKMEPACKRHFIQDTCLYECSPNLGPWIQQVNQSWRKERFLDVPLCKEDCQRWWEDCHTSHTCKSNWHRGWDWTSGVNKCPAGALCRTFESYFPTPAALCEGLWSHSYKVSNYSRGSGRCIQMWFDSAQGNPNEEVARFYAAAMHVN

For `Nc1nc2ncc(CNc3ccc(C(=O)N[C@@H](CCC(=O)NCCNC(=S)Nc4ccc(-c5c6ccc(=O)cc-6oc6cc(O)ccc56)c(C(=O)O)c4)C(=O)O)cc3)nc2c(=O)[nH]1` [EC17, FA-(γ)-ethylenediamine-FITC], the Kd [1] was 1.7 nM, the Kd [2] was 0.8 nM and the non-liver macrometastases ([3]; EC17 M/Th/M dose escalation at a slow pace per cycle) was “failed to control the non-liver macrometastases”. The body weight loss ([3]; ~6 million E2 CAR-T + EC17 M/Th/M dose escalation, 6-day break (Cohort 5)) was “little body weight loss during the first two cycles; also recorded: very mild body weight loss”, the “tumor volume (antitumor activity)” value ([4]; 6 million E2 CAR-T cells + EC17 5/100/1000 nmol/kg, M/Th/M (Cohort 2, FIG. 4)) was “significant tumor regression” and the “body weight loss or CRS” value ([4]; 6 million E2 CAR-T cells + EC17 slow dose escalation M/Th/M (Cohort 2, FIG. 4)) was “without body weight loss or CRS; also recorded: No body weight loss or symptoms of cytokine release syndrome (CRS) were observed”. The “day of euthanasia due to tumor progression” value ([4]; five EC17 treated mice, EC17 M/Th/M dose escalation) was 33 (2 mice) and 47 (3 mice) days, the “CRS or body weight loss” value ([4]; ~6 million E2-CAR-T cells + EC17 5/10/100, 5/30/300, 5/50/500 nmol/kg Cycles 1-3, M/Th/M (FIG. 14)) was “no CRS or body weight loss” and the tumor growth ([4]; ~6 million E2-CAR-T cells + EC17 5/10/100, 5/30/300, 5/50/500 nmol/kg Cycles 1-3, M/Th/M, 6-day break (FIG. 14)) was “significant delay in tumor growth; also recorded: stopped responding to treatment in Cycle 3”.
